Reference: patent US20070172471A1, “Method for identifying an anti- streptococcal agent and its use for treating streptococcal infections” (Hansa Medical AB, priority 2003, published 2007)

How the values were obtained:
[1] = system: thrombin-induced coagulation of normal plasma; assay: Clotting assay (thrombin clotting time); assay type: biochemical; conditions: human plasma, peptides 100 μg/ml, 15 min 37° C., FIG. 5A
Description: Clotting assay—The thrombin clotting time (TCT) was measured in a coagulometer (Amelung, Lemgo, Germany). Samples of 200 μl human citrate-treated plasma were incubated with 4 μl of peptide H-2395 or H-2940 (5 mg/ml) for 15 min at 37° C. Clotting was initiated by adding 100 μl of the TCT reagent (Sigma Chemicals, St. Louis, Mo.).

[2] = system: purified PMNs in a mixture of plasma and M1 protein; assay: M1 protein-induced PMN aggregation, scanning electron microscopy; assay type: cell-based, human
Description: Cell culture, neutrophil isolation, and stimulation of cells. Human PMNs were isolated from fresh heparinized blood of healthy volunteers using NIM, a single step density gradient medium, according to the instructions supplied by the manufacture. PMNs were counted with a hemocytometer, resuspended in MEM medium at 10^7 cells/ml and maintained on rotation in this medium at room temperature until use. All experiments on isolated PMNs were performed in Na-medium and initiated within 1 h of PMN isolation. Neutrophilic proteinase release was induced by PMN activation through antibody cross-linking of CD11 b/CD18 as described previously (Gautam et al., 2000, J. Exp. Med., 191, 1829-1839).
Scanning electron microscopy—Probes were gently applied to Millipore filters (Waters Corporation, Milford). Samples were then sucked down to the filters by a wet filter paper lying underneath. The filters were fixed in 2% (v/v) glutaraldehyde, 0.1 M sodium cacodylate, 0.1 M sucrose, pH 7.2 for 1 h at 4° C., and washed with 0.15 M cacodylate, pH 7.2. The filters were postfixed with 1% (w/v) osmium tetroxide, 0.15 M sodium cacodylate, pH 7.2, for 1 h at 4° C., washed, and stored in cacodylate buffer. […]

[3] = system: S. pyogenes AP1 bacteria infected mice; assay type: in vivo, mouse; conditions: s.c. AP1 bacteria with 400 μg peptide, i.v. peptide after 30 min, lungs six hours after infection, scanning electron microscopy
[4] = system: mice of the C57BL/6 strain
[5] = system: thrombin-induced coagulation of normal plasma; conditions: Laudano and Doolittle, 1980; cited from earlier work
TNF-stimulated PMNs = conditions: Loike et al., 1991; cited from earlier work
PMNs = conditions: Ruf and Patscheke, 1995; cited from earlier work
[6] = system: M1 protein-induced release of HBP from PMNs in human blood; conditions: M1 protein 1 μg/ml, 30 min 37° C., FIG. 2 and FIG. 5B
Description: HBP release. 100 μl human blood were diluted in PBS to a final volume of 1.0 ml and incubated with various PMNs-activating components for 30 min at 37° C. Cells were centrifuged (300×g for 15 min) and the supernatant was analyzed by sandwich ELISA. In order to quantify the total amount of HBP in blood, cells were lysed with 0.02% (v/v) Triton X-100, and pelleted as described above.

[7] = M1 protein 15 μg/animal with peptide 400 μg/animal i.v., 30 min

Substance: Gly-Pro-Arg-Pro (GPRP)
- thrombin-induced coagulation / clotting time [1]: completely blocked thrombin-induced coagulation
- M1 protein-induced PMN aggregation [2]: inhibited the aggregation
- lung damage in infected mice [3]: much less affected
- M1 protein induced lung lesions (hemorrhage and tissue destruction), light microscopy [4, 7]: almost completely prevented
- M1 protein-caused lung damage, scanning electron microscopy [4, 7]: contained no precipitates
- ratio of lung area containing protein aggregates versus total lung area ([4]; M1 protein plus peptide i.v., six lung sections per animal, electron microscopy): 6±2%
- clot formation [5]: prevents clot formation
- adherence of TNF-stimulated PMNs to fibrinogen-coated surfaces (TNF-stimulated PMNs): block adherence
- platelet-induced activation of PMNs (PMNs): inhibited
- effect on M1 protein-induced release of HBP [6]: blocked the mobilization of HT3P by M1 protein in a dose dependent manner
